Assays:
[1] = tested on: CD34+ selected peripheral blood stem cells (PBSCs); test: Adenoviral β-galactosidase transgene expression in CD34+ PBSCs; assay type: cell-based; conditions: pre-treated 0.1 ng/ml for 24 hr, moi=10, incubation less than 1 hr
Excerpt: (§1) […] […] Adenovirus transgene expression was compared using the β-Gal Staining Kit (Invitrogen, Carlsbad, Calif.) and β-gal positive cells were counted from three non-overlapping fields.

[2] = tested on: human umbilical vein endothelial cells (HUVEC); test: Adenoviral β-galactosidase transgene expression in HUVEC; assay type: cell-based; conditions: HUVEC treated with 0.3 ng/ml for 48 hr prior to adenoviral infection
Excerpt: […] Cells were transduced with 100 MOI of Ad-βgal in medium without serum for 1 hr and maintained with serum-containing medium for 48 hrs after transduction. Adenovirus transgene expression was compared using the β-Gal Staining Kit (Invitrogen, Carlsbad, Calif.) and β-gal positive cells were counted from three non-overlapping fields.

[3] = tested on: coxsackie-adenovirus receptor (CAR); test: RT-PCR analysis of CAR RNA levels in cultured cells; assay type: cell-based, human; conditions: for level of CAR (RT-PCR), compared with K562: less than 3 ng/ml; for level of CAR (RT-PCR): HUVEC
Procedure: RT-PCR for CAR and integrin αv was performed using total RNA extracted with the RNeasy Mini Kit (Qiagen, Valencia, Calif.). Single-stranded oligo(dt)-primed cDNA was generated from 1 μg of RNA in a 20 μl reaction using MMLV reverse transcriptase (Life Technologies, Eggenstein, Germany). Oligonucleotide primers used for analysis of human CAR (Bergelson et al., supra) and αv integrin (Suzuki et al., Proc. Natl. Acad. Sci. U.S.A. 83:8614-8618 (1986)) RNA expression were:
(§2) These primers generated products that were 631 bp (CAR) and 490 bp (αv integrin) in length. The amplification reaction was carried out with 1 μg of the cDNA product for 30 cycles, and each cycle consisted of 94° C for 20 sec, 64° C. for 30 sec and 72° C. for 1 min, followed by a final 10 min elongation at 72° C. Comparability of RNA quantities was assured using β-actin as an internal standard. Oligonulceotide primers for human β-actin RNA amplification were: […]

K562 cells = test: Adenoviral β-galactosidase transgene expression in K562; assay type: cell-based, human; conditions: pre-treated 1 ng/ml for 24 hr, moi=50, incubation less than 1 hr
Excerpt: as §1

acetylated histone H3 [4] = test: Western blot analysis of acetylated histone H3; assay type: cell-based, human
Procedure: Supernatants were collected as nuclear extracts. […] The membrane was incubated for 30 min with either a rabbit polyclonal antibody against acetylated histone H3 (Upstate Biotechnology, Lake Placid, N.Y.) or a rabbit polyclonal antibody against histone H3 (Upstate Biotechnology, Lake Placid, N.Y.) diluted 1:2000 in 5% milk. After washing, anti-rabbit Ig horseradish peroxidase-linked secondary antibody (Amersham Pharmacia Biotech, Piscataway, N.J.) was added and incubated for 30 min. After washing, the membrane was developed in ECL™ Western blotting detection reagents (Amersham Pharmacia Biotech, Piscataway, N.J.).

[5] = tested on: A498, MCF7 and HepG2 cancerous cell lines; test: β-galactosidase expression upon AdCMVβgal infection, cancerous cell lines (Example 4); assay type: cell-based, human
Procedure: (§3) 10^4 untreated cells or 10^4 cells pre-treated with 1 ng/ml depsipeptide for 72 hrs were plated on a round cover glass (DAIGGER, Vernon Hills, Ill.) in 24 well plates. Cells were transduced with 100 MOI of Ad-βgal in medium without serum for 1 hr and maintained with serum-containing medium for 48 hrs after transduction. Adenovirus transgene expression was compared using the β-Gal Staining Kit (Invitrogen, Carlsbad, Calif.) and β-gal positive cells were counted from three non-overlapping fields.
A498, MCF7 and HepG2 cancerous cell lines and normal cells (Clonetics, Walkersville, Md.) were treated with FR901228. […] Induction of CAR was only observed in normal cells at 10-20 ng/ml FR901228 and then only a two-fold increase in CAR was observed.

acetylated histone H3 [6] = test: Acetylated histone H3 in PBMNCs of a Phase I depsipeptide patient; assay type: in vivo, human; conditions: after administration of depsipeptide
Excerpt: (§4) In addition to the above, PBMNCs were obtained from a patient enrolled in a Phase I depsipeptide (FR901228) study (concentrations used with cultured cells are within the range administered to patients) and examined.

αv integrin = test: RT-PCR analysis of αv integrin RNA levels in cultured cells; assay type: cell-based, human
Procedure: RT-PCR for CAR and integrin αv was performed using total RNA extracted with the RNeasy Mini Kit (Qiagen, Valencia, Calif.). Single-stranded oligo(dt)-primed cDNA was generated from 1 μg of RNA in a 20 μl reaction using MMLV reverse transcriptase (Life Technologies, Eggenstein, Germany).
as §2, with “The” for “These primers generated products that were 631 bp (CAR) and 490 bp (αv integrin) in length. The”

histone H3 = test: Western blot analysis of total histone H3; assay type: cell-based, human
Procedure: Supernatants were collected as nuclear extracts. Ten […] of protein were separated on an 11% SDS-PAGE gel, and electroblotting to Immobilon™-P transfer membrane (Millipore, Bedford, Mass.) was performed. The membrane was incubated for 30 min with either a rabbit polyclonal antibody against acetylated histone H3 (Upstate Biotechnology, Lake Placid, N.Y.) or a rabbit polyclonal antibody against histone H3 (Upstate Biotechnology, Lake Placid, N.Y.) diluted 1:2000 in 5% milk. After washing, anti-rabbit Ig horseradish peroxidase-linked secondary antibody (Amersham Pharmacia Biotech, Piscataway, N.J.) was added and incubated for 30 min. After washing, the membrane was developed in ECL™ Western blotting detection reagents (Amersham Pharmacia Biotech, Piscataway, N.J.).

CAR = CAR expression in PBMNCs of a Phase I depsipeptide patient; assay type: in vivo, human
Excerpt: as §4

[7] = tested on: human cancer cell lines FTC 236, SW-1736, SW620, A498, MCF7, HepG2; test: Transduction efficiency by Ad-βgal (β-gal positive cells), six cancer cell lines; assay type: cell-based; conditions: 72 hrs with 1 ng/ml depsipeptide
Procedure: A total of 6 human cancer cell lines were tested: a follicular thyroid carcinoma (FTC 236) (Demeure et al., World J. Surg. 16:770-776 (1992)); an anaplastic thyroid carcinoma (SW-1736) (Ain et al., J. Clin. Endocrinol. Metab. 81:3650-3653 (1996)); a colon carcinoma (SW620) (Leibovitz et al., Cancer Res. 36:4562-4569 (1976)); a renal cell carcinoma (A498) (Giard et al., J. Natl. Cancer Inst. 51:1417-1423 (1973)); a breast carcinoma (MCF7) (Soule et al., J. Natl. Cancer Inst. 51:1409-1413 (1973)); and a hepatocarcinoma (HepG2) (Knowles et al., Science 209:497-499 (1980)).
The Ad5.CMV-LacZ is an E1 and E3 gene deleted replication defective type 5 adenovirus obtained from Qbiogene (Carlsbad, Calif.). It was grown in 293A cells according to protocols supplied by the company. The AdCMVβgal virus was purified and the titer was determined by the TCID50 assay as described by the manufacturer.
as §3

[8] = tested on: G-CSF-mobilized peripheral blood mononuclear cells (PBMNCs); test: Adenoviral β-galactosidase transgene expression in PBMNCs; assay type: cell-based; conditions: pre-treated 0.1 ng/ml for 24 hr, moi=10, incubation less than 1 hr
Excerpt: as §1

[9] = 1 ng/ml depsipeptide for 72 hrs, all six human cancer cell lines
[10] = A498, MCF7, HepG2 cancerous cells, 1 ng/ml

C/C=C1\NC(=O)[C@H]2CSSCC/C=C/[C@H](CC(=O)N[C@H](C(C)C)C(=O)N2)OC(=O)[C@H](C(C)C)NC1=O [FR901228]
cells expressing β-galactosidase [1]: more than 80%
cells expressing the β-galactosidase transgene [2]: over 80%
expression of endogenous CAR [3, 9]: increased expression
CAR expression [3, 10]: increased CAR expression in cancerous cells to levels higher than those found in normal cells
level of CAR (RT-PCR), compared with K562 ([3]; CD34+ selected PBSCs): Comparable levels of CAR
level of CAR (RT-PCR), compared with K562 ([3]; G-CSF-mobilized PBMNCs): Comparable levels of CAR
level of CAR (RT-PCR) ([3]; 0.3 ng/ml for 48 hr): increased the level of CAR significantly
increase in level of CAR (RT-PCR) ([3]; K562 cells, 1 ng/ml): about 3 fold
concentration at which induction of CAR was observed ([3]; normal cells (Clonetics)): 10 to 20 ng/mL
increase in CAR ([3]; normal cells, 10-20 ng/ml): two-fold
cells expressing β-galactosidase (K562 cells): more than 80%
histone acetylation (acetylated histone H3 [4]; 1 ng/ml depsipeptide, cancer cell lines of Example 1): marked increase
level of acetylated histone H3 (acetylated histone H3 [4]; CD34+ PBSCs): increased the level of acetylated histone H3 substantially
level of acetylated histone H3 (acetylated histone H3 [4]; HUVEC): increased the level of acetylated histone H3 substantially
level of acetylated histone H3 (acetylated histone H3 [4]; K562 cells): increased the level of acetylated histone H3 substantially
histone acetylation (acetylated histone H3 [4]; cancerous cells, 1 ng/ml): increased histone acetylation
concentration required to increase histone acetylation (acetylated histone H3 [4]; normal cells, compared with cancerous cells): higher concentration
cancerous cells expressing β-galactosidase ([5]; A498, MCF7, HepG2 following FR901228 treatment): 75-85%
increase in β-galactosidase expression upon infection ([5]; all cancerous cell lines (A498, MCF7, HepG2) following FR901228 treatment): 4-10 fold
level of acetylated histone H3 in patient PBMNCs (acetylated histone H3 [6]): increased
expression of endogenous αv integrin (αv integrin; [9]): increased expression
levels of αv integrins (αv integrin; [10]): increased from undetectable to a level similar to that found in untreated normal cells
levels of αv integrins (printed 'o integrins') (αv integrin; normal cells treated in the same manner): little increase
level of histone H3 (histone H3; HUVEC): not altering the level of histone H3
total histone H3 levels (histone H3; K562 cells and CD34+ PBSCs): No significant change
CAR expression in patient PBMNCs (CAR; after completion of a 4 hr depsipeptide infusion): increase
CAR expression in patient PBMNCs (CAR; at 24 hr of depsipeptide infusion): further increase
cells expressing β-galactosidase ([7]; then adenovirus with CMV-β-galactosidase, six cancer cell lines): 72-88%
frequency of expression of the β-galactosidase transgene ([7]; all cell lines): marked increases
cells expressing β-galactosidase [8]: more than 80%

CCCC(=O)[O-].[Na+] [sodium butyrate]
level of CAR (RT-PCR) ([3]; concentration not given): little effect

CC(/C=C/C(=O)NO)=C\[C@@H](C)C(=O)c1ccc(N(C)C)cc1 [trichostatin A]
level of CAR (RT-PCR) ([3]; concentration not given): increased the level of CAR slightly
